One may read the EC50 as the concentration that produces a half-maximal response.

This assay deals with T1, TRPL (TRPL::EGFP) (Drosophila melanogaster, UniProt P48994).
T1 sequence (P48994 1-1124): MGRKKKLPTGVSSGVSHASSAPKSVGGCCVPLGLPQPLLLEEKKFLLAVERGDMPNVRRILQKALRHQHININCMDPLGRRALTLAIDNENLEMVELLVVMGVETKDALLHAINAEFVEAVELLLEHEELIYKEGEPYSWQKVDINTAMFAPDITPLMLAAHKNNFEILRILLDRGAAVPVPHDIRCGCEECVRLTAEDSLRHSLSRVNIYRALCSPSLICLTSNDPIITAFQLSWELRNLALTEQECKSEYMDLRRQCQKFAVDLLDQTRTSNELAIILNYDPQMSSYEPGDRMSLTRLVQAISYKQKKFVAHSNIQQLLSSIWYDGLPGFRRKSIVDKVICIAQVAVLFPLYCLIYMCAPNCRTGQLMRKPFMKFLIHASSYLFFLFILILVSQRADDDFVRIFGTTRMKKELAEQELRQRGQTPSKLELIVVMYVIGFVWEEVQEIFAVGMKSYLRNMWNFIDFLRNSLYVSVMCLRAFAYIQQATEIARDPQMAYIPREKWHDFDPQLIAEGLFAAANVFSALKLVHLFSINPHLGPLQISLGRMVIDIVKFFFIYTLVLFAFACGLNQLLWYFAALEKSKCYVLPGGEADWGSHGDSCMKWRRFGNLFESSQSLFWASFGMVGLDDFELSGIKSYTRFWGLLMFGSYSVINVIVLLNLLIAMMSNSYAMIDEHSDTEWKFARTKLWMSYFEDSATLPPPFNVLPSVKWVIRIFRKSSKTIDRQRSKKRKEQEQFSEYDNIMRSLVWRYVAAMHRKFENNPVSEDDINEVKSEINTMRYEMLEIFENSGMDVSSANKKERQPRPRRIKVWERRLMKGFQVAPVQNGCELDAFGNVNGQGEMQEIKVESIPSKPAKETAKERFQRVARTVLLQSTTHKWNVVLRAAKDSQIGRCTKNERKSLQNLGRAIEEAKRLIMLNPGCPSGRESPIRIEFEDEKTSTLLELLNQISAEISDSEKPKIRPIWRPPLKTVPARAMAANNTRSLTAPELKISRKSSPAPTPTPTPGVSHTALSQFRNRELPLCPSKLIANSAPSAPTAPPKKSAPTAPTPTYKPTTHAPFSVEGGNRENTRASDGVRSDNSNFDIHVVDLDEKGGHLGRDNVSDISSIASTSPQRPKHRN
Put plainly: Fura-2 Ca2+ imaging, S2 cells. The class given is cell-based.
Take `CCCCC/C=C\C/C=C\CCCCCCCC(=O)OC(CO)CO` [2-LG, 2-linoleoyl glycerol]: it took 5.23 µM to reach a half-maximal effect (EC50).

Consider `CCCCC/C=C\C/C=C\CCCCCCCC(=O)NCCO` [LEA, linoleoyl ethanolamide], for which a half-maximal response (EC50) required 7.04 µM.

Take `CCCCC/C=C\C/C=C\CCCCCCCC(=O)NCC(=O)O` [LinGly, linoleoyl glycine]: the EC50 worked out at 2.99 µM. This EC50 is about 2.4-fold lower than that of the molecule before.

The values are drawn from PMC9633101 (Science signaling, 2022).
